Source: ChEMBL document CHEMBL4145535, “Recent updates for designing CCR5 antagonists as anti-retroviral agents” (Eur J Med Chem, 2018)

Legend:
[1] = target: T1, C-C chemokine receptor type 5 (Homo sapiens, UniProt P51681); experiment: Displacement of [125I]-RANTES from CCR5 in mouse NIH/3T3 cells after 1 hr
Target sequence in this assay (P51681 whole entry, looked up): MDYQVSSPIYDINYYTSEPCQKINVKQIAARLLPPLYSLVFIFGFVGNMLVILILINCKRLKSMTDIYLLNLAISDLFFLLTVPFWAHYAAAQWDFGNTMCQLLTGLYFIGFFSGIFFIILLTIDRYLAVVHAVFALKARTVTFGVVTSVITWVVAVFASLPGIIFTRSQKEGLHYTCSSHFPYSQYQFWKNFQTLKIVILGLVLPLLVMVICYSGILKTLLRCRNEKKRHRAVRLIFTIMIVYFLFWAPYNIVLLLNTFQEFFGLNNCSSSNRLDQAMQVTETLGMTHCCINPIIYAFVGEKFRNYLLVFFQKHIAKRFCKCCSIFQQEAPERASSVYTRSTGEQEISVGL

[2] = target: T1, C-C chemokine receptor type 5; experiment: Antagonist activity at CCR5 (unknown origin) by HTS assay; type: functional
Target sequence in this assay (P51681 whole entry): as the sequence (P51681 whole entry, looked up) above

Row | SMILES | IC50 [1] | IC50 [2]
1 | C=CCN(C(=O)OCc1ccc([N+](=O)[O-])cc1)C1CCN(C[C@H]2CN(C(=O)C3CCCC3)C[C@]2(O)c2ccccc2)CC1 [NIFEVIROC] | 2.9 nM | –
2 | C1NCC2CNCC12 (configuration not stated) | – | 7 nM
